# Patent publication US20100099762A1, “COMBINATION THERAPY” (THE MENTAL HEALTH RESEARCH INSTITUTE OF VICTORIA, priority 2006, published 2010)
# Marks after values point to notes of the source that are not given here.
# System: schizophrenia
# Test: Randomised double blind multicentre placebo controlled trial of NAC in combination with an antipsychotic agent in schizophrenia
# Format: in vivo, human
# From the text: There is preclinical evidence of a reduction in antioxidant defences in schizophrenia, particularly a reduction in glutathione, which is a primary endogenous antioxidant defence. N-acetyl cysteine (NAC) is a bioavailable precursor of glutathione. This Example is a randomised double blind multicentre placebo controlled trial of the use of NAC in combination with an antipsychotic agent in the treatment of schizophrenia. A total of 140 individuals were randomised to receive 2 g daily of NAC in two divided doses, or placebo, together with their normal dosage of antipsychotic agent.
# Participants were assigned randomly and consecutively to treatment with NAC or placebo in a double blind fashion. The randomisation log was generated by an independent individual using the traditional coin tossing method. The investigators and clinicians remained blind until data analysis was completed. The person generating the randomisation schedule was not involved in participant interviews, either for participant eligibility or outcome measurements.
# All participants remained on their usual antipsychotic medication for the duration of the trial. The dose of the primary therapy was monitored. Participants were recruited through advertisements, referral by case clinicians and through database screening. All participants provided written informed consent as part of complying with the protocol.
# All randomised participants received two NAC (500 mg) capsules twice daily, to a total dose of 2 g daily, or matching placebo capsules. Human dosing can be up to 5 g/day without adverse effects (Louwerse E. S. et al., 1995). A daily dose that is within the range of efficacy in published clinical trials (Adair J. C. et al., 2001, Van Schooten F. J. et al., 2002, and Behr J, et al., 2002) was selected. Once per day dosing is desirable in the drug treatment of schizophrenia, where medication compliance is known to be a challenge in management. However, steady state plasma levels cannot be achieved with a once daily oral dose of NAC as the plasma half-life is only 2-3 hours (Holdiness M. R., 1991 and Kelly G. S., 1998). While a twice-daily (BID) dosing regimen would also not be expected to achieve steady state plasma levels, dose intervals beyond BID were considered to markedly increase the risk of non-compliance in this population.
# To be included, the patients were required to meet Diagnostic and Statistical Manual of Mental Disorders, fourth edition (DSM-IV) (Association AP, 1994) criteria for schizophrenia and have a PANSS total score of ≧55, or at least two items in the positive and/or negative items being >3, or have a CGI-S≧3. They needed to have the capacity to consent to the study, and be aged between 18 and 65. Both inpatients and outpatients were eligible. Participants needed to be currently taking an antipsychotic agent and to be utilising effective contraception if female and of childbearing age. Exclusion criteria included patients with abnormal renal, hepatic, thyroid or haematological findings, patients with a systemic medical disorder including asthma, allergies or any history of bronchospasm, respiratory insufficiency and recent gastrointestinal ulcers and females who were positive on pregnancy screening testing at baseline. Participants who were taking a mood stabiliser (e.g. lithium, valproate and carbamazepine) were excluded as were those currently taking drugs that are known to prevent GSH depletion (500+mg of NAC/day, 200+ug of selenium/day or 500+IU of Vitamin E/day).
# Withdrawal from the trial occurred if participants ceased taking their trial medication for seven consecutive days, or ceased effective contraception, or became pregnant. A change in primary antipsychotic from one medication to another required participants to be withdrawn from the study. Similarly, the addition of a mood stabiliser required withdrawal of the participant. Dose changes to existing medications were not an exclusion criterion, and this was monitored. […]
# [1] = score at week 24, end of treatment
# [2] = washout, week 28, LOCF ANCOVA with interaction term
# [3] = week 8, LOCF ANCOVA, Placebo-NAC
# [4] = week 24, LOCF ANCOVA, Placebo-NAC
# [5] = week 24 to washout, week 28, LOCF ANCOVA
# [6] = week 24 to washout, week 28, LOCF ANCOVA with interaction term
smiles,measurement,setting,value
"CC(=O)N[C@@H](CS)C(=O)O [NAC, N-acetyl cysteine]",PANSS General: NAC Mean Week 24 (SD),[1],28.8 (8.5)
same,PANSS Negative: NAC Mean Week 24 (SD),[1],13.7 (4.9)
same,PANSS Positive: NAC Mean Week 24 (SD),[1],14.5 (5.6)
same,PANSS Total: NAC Mean Week 24 (SD),[1],57.0 (16.1)
same,SAS: NAC Mean Week 24 (SD),[1],1.6 (1.3)
same,SOFAS: NAC Mean Week 24 (SD),[1],58.8 (12.7)
same,Onset of clinical benefit on CGI-I (scores significantly better than placebo),"time from commencing treatment, Fisher's categorical analysis",≤ 4 weeks
same,Onset of clinical benefit on CGI-S (scores significantly better than placebo),"time from commencing treatment, MMRM",≤ 2 weeks
same,AIMS: LS Mean Difference (95% CI) between placebo and NAC at post-treatment discontinuation,"washout, week 28, LOCF ANCOVA","−0.40 (−1.41, 0.61)"
same,BAS: LS Mean Difference (95% CI) between placebo and NAC at post-treatment discontinuation,"washout, week 28, LOCF ANCOVA","−0.31 (−0.91, 0.29)^‡"
same,GAF: LS Mean Difference (95% CI) between placebo and NAC at post-treatment discontinuation,"washout, week 28, LOCF ANCOVA","0.61 (−3.5, 4.72)^‡"
same,PANSS Positive: LS Mean Difference (95% CI) between placebo and NAC at post-treatment discontinuation,"washout, week 28, LOCF ANCOVA","0.75 (−0.72, 2.22)"
same,SAS: LS Mean Difference (95% CI) between placebo and NAC at post-treatment discontinuation,"washout, week 28, LOCF ANCOVA","−0.52 (−0.99, −0.05)*"
same,SOFAS: LS Mean Difference (95% CI) between placebo and NAC at post-treatment discontinuation,"washout, week 28, LOCF ANCOVA","−1.17 (−4.89, 2.55)"
same,PANSS General: LS Mean Difference (95% CI) between placebo and NAC at post-treatment discontinuation,[2],"−0.85 (−3.45, 1.75)^‡"
same,PANSS Negative: LS Mean Difference (95% CI) between placebo and NAC at post-treatment discontinuation,[2],"−1.58 (−3.17, 0.00)^‡"
same,PANSS Total: LS Mean Difference (95% CI) between placebo and NAC at post-treatment discontinuation,[2],"−2.70 (−6.85, 1.45)^‡"
same,AIMS: Between Placebo-NAC differences Week 8 LS Mean Difference (95% CI),[3],"−0.31 (−1.0, 0.41)"
same,BAS: Between Placebo-NAC differences Week 8 LS Mean Difference (95% CI),[3],"0.20 (−0.24, 0.64)"
same,GAF: Between Placebo-NAC differences Week 8 LS Mean Difference (95% CI),[3],"−0.51 (−3.7, 2.7)"
same,PANSS General: Between Placebo-NAC differences Week 8 LS Mean Difference (95% CI),[3],"−1.5 (−3.4, 0.34)"
same,PANSS Negative: Between Placebo-NAC differences Week 8 LS Mean Difference (95% CI),[3],"−0.49 (−1.8, 0.80)"
same,PANSS Positive: Between Placebo-NAC differences Week 8 LS Mean Difference (95% CI),[3],"−0.25 (−1.5, 0.98)"
same,PANSS Total: Between Placebo-NAC differences Week 8 LS Mean Difference (95% CI),[3],"−2.6 (−6.1, 0.80)"
same,SAS: Between Placebo-NAC differences Week 8 LS Mean Difference (95% CI),[3],"−0.06 (−0.39, 0.26)"
same,SOFAS: Between Placebo-NAC differences Week 8 LS Mean Difference (95% CI),[3],"−0.20 (−3.9, 3.5)"
same,AIMS: Between Placebo-NAC differences Week 24 LS Mean Difference (95% CI),[4],"0.12 (−0.65, 0.89)"
same,BAS: Between Placebo-NAC differences Week 24 LS Mean Difference (95% CI),[4],"0.54 (0.08, 1.00)*"
same,GAF: Between Placebo-NAC differences Week 24 LS Mean Difference (95% CI),[4],"−2.6 (−6.6, 1.3)"
same,PANSS Positive: Between Placebo-NAC differences Week 24 LS Mean Difference (95% CI),[4],"0.50 (−1.1, 2.1)"
same,SAS: Between Placebo-NAC differences Week 24 LS Mean Difference (95% CI),[4],"0.11 (−0.27, 0.50)"
same,SOFAS: Between Placebo-NAC differences Week 24 LS Mean Difference (95% CI),[4],"−0.92 (−5.67, 3.82)"
same,AIMS: NAC Mean Overall Change (95% CI) at post-treatment discontinuation,[5],"−0.27 (−1.0, 0.50)"
same,BAS: NAC Mean Overall Change (95% CI) at post-treatment discontinuation,[5],"0.42 (−0.02, 0.86)"
same,CGI-S: NAC Mean Overall Change (95% CI) at post-treatment discontinuation,[5],"−0.17 (−0.41, 0.08)"
same,GAF: NAC Mean Overall Change (95% CI) at post-treatment discontinuation,[5],"0.37 (−2.7, 3.5)"
same,PANSS Positive: NAC Mean Overall Change (95% CI) at post-treatment discontinuation,[5],"−0.96 (−2.0, 0.12)"
same,SAS: NAC Mean Overall Change (95% CI) at post-treatment discontinuation,[5],"0.30 (−0.06, 0.65)"
same,SOFAS: NAC Mean Overall Change (95% CI) at post-treatment discontinuation,[5],"−0.79 (−3.8, 2.2)"
same,PANSS General: NAC Mean Overall Change (95% CI) at post-treatment discontinuation,[6],"0.18 (−1.7, 2.1)"
same,PANSS Negative: NAC Mean Overall Change (95% CI) at post-treatment discontinuation,[6],"0.60 (−0.55, 1.7)"
same,PANSS Total: NAC Mean Overall Change (95% CI) at post-treatment discontinuation,[6],"0.56 (−2.4, 3.6)"
same,Proportion of patients clinically improved on the CGI-I scale referred to baseline,"week 28, after washout, NAC versus placebo",remained significantly greater
same,More subjects in the NAC treatment group showing improvement on CGI-I compared to placebo,"weeks 12, 16 and 24",≈ 25%
